Measured values published in paper PMC6409085, “Three odorant-binding proteins are involved in the behavioral response of Sogatella furcifera to rice plant volatiles” (PeerJ, 2019).
“And” between values parts separate entries of the source, which are not always exact repeats. Equal entries are not always repeated.

Tests used:
S. furcifera adults = experiment: Y-tube olfactometer behavioral trials; type: in vivo, Sogatella furcifera; conditions: odorant 50 µL/L vs hexane; adults
Procedure, shortened: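 Single S. furcifera adults (2 days post-emergence, starved 0.5 h) chose between odorant (100 µL of 50 µL/L on filter paper) and hexane control in a glass Y-tube, charcoal-filtered humidified air 300 mL/min per arm, 25 ± 1 °C, 50% RH. Choice scored if insect passed half an arm and stayed >1 min within 10 min; 45 insects per compound, chi-squared test.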

SfurOBP1 = SfurOBP1 (Sogatella furcifera, UniProt V5T8N5); experiment: biochemical; type: binding; conditions: for Fluorescence competitive binding assay, fluorescence intensity: OBP1, three replicate columns
SfurOBP1, sequence (V5T8N5 entry or part of it): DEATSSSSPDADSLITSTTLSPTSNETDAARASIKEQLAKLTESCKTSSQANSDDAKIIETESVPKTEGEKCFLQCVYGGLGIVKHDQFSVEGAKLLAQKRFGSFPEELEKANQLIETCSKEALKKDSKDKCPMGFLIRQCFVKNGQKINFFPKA
Procedure, shortened: (§1)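 Fluorescence competitive binding with 1-NPN as reporter: 2.0 µM protein and 2.0 µM 1-NPN in 50 mM Tris-HCl pH 7.4, odorant added at 2–20 µM final. Excitation 337 nm, emission 390–490 nm read 2 min after addition, triplicates. Ki = IC50/(1 + [1-NPN]/K1-NPN).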

SfurOBP2 = SfurOBP2 (Sogatella furcifera, UniProt V5T759); experiment: biochemical; type: binding
SfurOBP2, sequence (V5T759 entry or part of it): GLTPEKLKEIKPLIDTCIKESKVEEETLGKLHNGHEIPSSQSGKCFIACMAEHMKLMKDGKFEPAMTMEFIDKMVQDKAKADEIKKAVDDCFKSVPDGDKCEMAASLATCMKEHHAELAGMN
Procedure, shortened: as §1

SfurOBP3 = SfurOBP3 (Sogatella furcifera, UniProt V5T818); experiment: biochemical; type: binding; conditions: for Fluorescence competitive binding assay, fluorescence intensity: OBP3, three replicate columns
SfurOBP3, sequence (V5T818 entry or part of it): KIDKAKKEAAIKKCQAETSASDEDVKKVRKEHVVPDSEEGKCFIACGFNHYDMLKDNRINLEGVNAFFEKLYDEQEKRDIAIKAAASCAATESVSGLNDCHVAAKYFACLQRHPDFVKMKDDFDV
Procedure, shortened: as §1

SfurOBP11 = SfurOBP11 (Sogatella furcifera, UniProt V5T6E3); experiment: biochemical; type: binding
SfurOBP11, sequence (V5T6E3 entry or part of it): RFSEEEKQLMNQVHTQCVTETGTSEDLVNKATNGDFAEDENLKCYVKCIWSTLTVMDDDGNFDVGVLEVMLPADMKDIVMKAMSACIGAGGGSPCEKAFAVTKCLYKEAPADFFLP
Procedure, shortened: as §1

## OC1CCCCC1 [cyclohexanol]
S. furcifera adults
  number of insects choosing hexane arm: 12
  number of insects choosing volatilies arm: 7
  number of insects failed (no choice): 21
SfurOBP1
  IC50: > 20 µM
SfurOBP1; ligand concentration 2 (μM)
  Fluorescence competitive binding assay, fluorescence intensity: 5844 and 5673 and 6371
SfurOBP1; ligand concentration 4 (μM)
  Fluorescence competitive binding assay, fluorescence intensity: 9311 and 8690 and 9932
SfurOBP1; ligand concentration 6 (μM)
  Fluorescence competitive binding assay, fluorescence intensity: 6443 and 7058 and 7039
SfurOBP1; ligand concentration 8 (μM)
  Fluorescence competitive binding assay, fluorescence intensity: 6837 and 7313 and 7729
SfurOBP1; ligand concentration 10 (μM)
  Fluorescence competitive binding assay, fluorescence intensity: 8238 and 7697 and 7236
SfurOBP1; ligand concentration 12 (μM)
  Fluorescence competitive binding assay, fluorescence intensity: 6489 and 6472 and 7355
SfurOBP1; ligand concentration 14 (μM)
  Fluorescence competitive binding assay, fluorescence intensity: 7069 and 6354 and 7092
SfurOBP1; ligand concentration 16 (μM)
  Fluorescence competitive binding assay, fluorescence intensity: 6030 and 6324 and 7260
SfurOBP1; ligand concentration 18 (μM)
  Fluorescence competitive binding assay, fluorescence intensity: 9356 and 7906 and 7474
SfurOBP1; ligand concentration 20 (μM)
  Fluorescence competitive binding assay, fluorescence intensity: 8046 and 8689 and 8368
SfurOBP2
  IC50: > 20 µM
SfurOBP2; ligand concentration 2 (unit not given), replicate column 1 of 3
  Fluorescence competitive binding assay, OBP2 (raw fluorescence reading): 20258
SfurOBP2; ligand concentration 2 (unit not given), replicate column 2 of 3
  Fluorescence competitive binding assay, OBP2 (raw fluorescence reading): 18511
SfurOBP2; ligand concentration 2 (unit not given), replicate column 3 of 3
  Fluorescence competitive binding assay, OBP2 (raw fluorescence reading): 18768
SfurOBP2; ligand concentration 4 (unit not given), replicate column 1 of 3
  Fluorescence competitive binding assay, OBP2 (raw fluorescence reading): 17006
SfurOBP2; ligand concentration 4 (unit not given), replicate column 2 of 3
  Fluorescence competitive binding assay, OBP2 (raw fluorescence reading): 17312
SfurOBP2; ligand concentration 4 (unit not given), replicate column 3 of 3
  Fluorescence competitive binding assay, OBP2 (raw fluorescence reading): 19296
SfurOBP2; ligand concentration 6 (unit not given), replicate column 1 of 3
  Fluorescence competitive binding assay, OBP2 (raw fluorescence reading): 17760
SfurOBP2; ligand concentration 6 (unit not given), replicate column 2 of 3
  Fluorescence competitive binding assay, OBP2 (raw fluorescence reading): 19185
SfurOBP2; ligand concentration 6 (unit not given), replicate column 3 of 3
  Fluorescence competitive binding assay, OBP2 (raw fluorescence reading): 18943
SfurOBP2; ligand concentration 8 (unit not given), replicate column 1 of 3
  Fluorescence competitive binding assay, OBP2 (raw fluorescence reading): 16983
SfurOBP2; ligand concentration 8 (unit not given), replicate column 2 of 3
  Fluorescence competitive binding assay, OBP2 (raw fluorescence reading): 16921
SfurOBP2; ligand concentration 8 (unit not given), replicate column 3 of 3
  Fluorescence competitive binding assay, OBP2 (raw fluorescence reading): 18381
SfurOBP2; ligand concentration 10 (unit not given), replicate column 1 of 3
  Fluorescence competitive binding assay, OBP2 (raw fluorescence reading): 16551
SfurOBP2; ligand concentration 10 (unit not given), replicate column 2 of 3
  Fluorescence competitive binding assay, OBP2 (raw fluorescence reading): 16106
SfurOBP2; ligand concentration 10 (unit not given), replicate column 3 of 3
  Fluorescence competitive binding assay, OBP2 (raw fluorescence reading): 17116
SfurOBP2; ligand concentration 12 (unit not given), replicate column 1 of 3
  Fluorescence competitive binding assay, OBP2 (raw fluorescence reading): 12653
SfurOBP2; ligand concentration 12 (unit not given), replicate column 2 of 3
  Fluorescence competitive binding assay, OBP2 (raw fluorescence reading): 16542
SfurOBP2; ligand concentration 12 (unit not given), replicate column 3 of 3
  Fluorescence competitive binding assay, OBP2 (raw fluorescence reading): 15003
SfurOBP2; ligand concentration 14 (unit not given), replicate column 1 of 3
  Fluorescence competitive binding assay, OBP2 (raw fluorescence reading): 14815
SfurOBP2; ligand concentration 14 (unit not given), replicate column 2 of 3
  Fluorescence competitive binding assay, OBP2 (raw fluorescence reading): 15068
SfurOBP2; ligand concentration 14 (unit not given), replicate column 3 of 3
  Fluorescence competitive binding assay, OBP2 (raw fluorescence reading): 14859
SfurOBP2; ligand concentration 16 (unit not given), replicate column 1 of 3
  Fluorescence competitive binding assay, OBP2 (raw fluorescence reading): 15306
SfurOBP2; ligand concentration 16 (unit not given), replicate column 2 of 3
  Fluorescence competitive binding assay, OBP2 (raw fluorescence reading): 13071
SfurOBP2; ligand concentration 16 (unit not given), replicate column 3 of 3
  Fluorescence competitive binding assay, OBP2 (raw fluorescence reading): 13046
SfurOBP2; ligand concentration 18 (unit not given), replicate column 1 of 3
  Fluorescence competitive binding assay, OBP2 (raw fluorescence reading): 15697
SfurOBP2; ligand concentration 18 (unit not given), replicate column 2 of 3
  Fluorescence competitive binding assay, OBP2 (raw fluorescence reading): 16234
SfurOBP2; ligand concentration 18 (unit not given), replicate column 3 of 3
  Fluorescence competitive binding assay, OBP2 (raw fluorescence reading): 16085
SfurOBP2; ligand concentration 20 (unit not given), replicate column 1 of 3
  Fluorescence competitive binding assay, OBP2 (raw fluorescence reading): 15959
SfurOBP2; ligand concentration 20 (unit not given), replicate column 2 of 3
  Fluorescence competitive binding assay, OBP2 (raw fluorescence reading): 14904
SfurOBP2; ligand concentration 20 (unit not given), replicate column 3 of 3
  Fluorescence competitive binding assay, OBP2 (raw fluorescence reading): 13122
SfurOBP3
  IC50: > 20 µM
SfurOBP3; ligand concentration 2
  Fluorescence competitive binding assay, fluorescence intensity: 73467 and 78493 and 77746
SfurOBP3; ligand concentration 4
  Fluorescence competitive binding assay, fluorescence intensity: 78452 and 70026 and 82856
SfurOBP3; ligand concentration 6
  Fluorescence competitive binding assay, fluorescence intensity: 79407 and 77940 and 78195
SfurOBP3; ligand concentration 8
  Fluorescence competitive binding assay, fluorescence intensity: 71546 and 83168 and 84706
SfurOBP3; ligand concentration 10
  Fluorescence competitive binding assay, fluorescence intensity: 73852 and 75338 and 78193
SfurOBP3; ligand concentration 12
  Fluorescence competitive binding assay, fluorescence intensity: 65457 and 72548 and 71432
SfurOBP3; ligand concentration 14
  Fluorescence competitive binding assay, fluorescence intensity: 60072 and 60001 and 71583
SfurOBP3; ligand concentration 16
  Fluorescence competitive binding assay, fluorescence intensity: 61622 and 57596 and 60550
SfurOBP3; ligand concentration 18
  Fluorescence competitive binding assay, fluorescence intensity: 75606 and 79879 and 73633
SfurOBP3; ligand concentration 20
  Fluorescence competitive binding assay, fluorescence intensity: 63397 and 61447 and 55682
SfurOBP11
  IC50: > 20 µM
SfurOBP11; ligand concentration 2, replicate 1
  Fluorescence intensity, fluorescence competitive binding assay, OBP11: 24375
SfurOBP11; ligand concentration 2, replicate 2
  Fluorescence intensity, fluorescence competitive binding assay, OBP11: 24650
SfurOBP11; ligand concentration 2, replicate 3
  Fluorescence intensity, fluorescence competitive binding assay, OBP11: 24939
SfurOBP11; ligand concentration 4, replicate 1
  Fluorescence intensity, fluorescence competitive binding assay, OBP11: 24494
SfurOBP11; ligand concentration 4, replicate 2
  Fluorescence intensity, fluorescence competitive binding assay, OBP11: 24823
SfurOBP11; ligand concentration 4, replicate 3
  Fluorescence intensity, fluorescence competitive binding assay, OBP11: 24654
SfurOBP11; ligand concentration 6, replicate 1
  Fluorescence intensity, fluorescence competitive binding assay, OBP11: 24316
SfurOBP11; ligand concentration 6, replicate 2
  Fluorescence intensity, fluorescence competitive binding assay, OBP11: 24699
SfurOBP11; ligand concentration 6, replicate 3
  Fluorescence intensity, fluorescence competitive binding assay, OBP11: 24500
SfurOBP11; ligand concentration 8, replicate 1
  Fluorescence intensity, fluorescence competitive binding assay, OBP11: 24760
SfurOBP11; ligand concentration 8, replicate 2
  Fluorescence intensity, fluorescence competitive binding assay, OBP11: 24220
SfurOBP11; ligand concentration 8, replicate 3
  Fluorescence intensity, fluorescence competitive binding assay, OBP11: 24499
SfurOBP11; ligand concentration 10, replicate 1
  Fluorescence intensity, fluorescence competitive binding assay, OBP11: 22885
SfurOBP11; ligand concentration 10, replicate 2
  Fluorescence intensity, fluorescence competitive binding assay, OBP11: 23988
SfurOBP11; ligand concentration 10, replicate 3
  Fluorescence intensity, fluorescence competitive binding assay, OBP11: 24498
SfurOBP11; ligand concentration 12, replicate 1
  Fluorescence intensity, fluorescence competitive binding assay, OBP11: 23691
SfurOBP11; ligand concentration 12, replicate 2
  Fluorescence intensity, fluorescence competitive binding assay, OBP11: 23225
SfurOBP11; ligand concentration 12, replicate 3
  Fluorescence intensity, fluorescence competitive binding assay, OBP11: 24428
SfurOBP11; ligand concentration 14, replicate 1
  Fluorescence intensity, fluorescence competitive binding assay, OBP11: 22556
SfurOBP11; ligand concentration 14, replicate 2
  Fluorescence intensity, fluorescence competitive binding assay, OBP11: 23123
SfurOBP11; ligand concentration 14, replicate 3
  Fluorescence intensity, fluorescence competitive binding assay, OBP11: 22199
SfurOBP11; ligand concentration 16, replicate 1
  Fluorescence intensity, fluorescence competitive binding assay, OBP11: 21391
SfurOBP11; ligand concentration 16, replicate 2
  Fluorescence intensity, fluorescence competitive binding assay, OBP11: 22093
SfurOBP11; ligand concentration 16, replicate 3
  Fluorescence intensity, fluorescence competitive binding assay, OBP11: 21606
SfurOBP11; ligand concentration 18, replicate 1
  Fluorescence intensity, fluorescence competitive binding assay, OBP11: 23329
SfurOBP11; ligand concentration 18, replicate 2
  Fluorescence intensity, fluorescence competitive binding assay, OBP11: 23356
SfurOBP11; ligand concentration 18, replicate 3
  Fluorescence intensity, fluorescence competitive binding assay, OBP11: 23748
SfurOBP11; ligand concentration 20, replicate 1
  Fluorescence intensity, fluorescence competitive binding assay, OBP11: 23863
SfurOBP11; ligand concentration 20, replicate 2
  Fluorescence intensity, fluorescence competitive binding assay, OBP11: 23927
SfurOBP11; ligand concentration 20, replicate 3
  Fluorescence intensity, fluorescence competitive binding assay, OBP11: 23769
